The values below are quoted from earlier work in publication PMC11876601 (Molecular Systems Biology, 2025).

Data set [1] deals with PRKD1. Also noted: method as in Reinecke et al. (2023). The following applies: PRKD1, 5 cell line mix lysate, Kinobeads ε, ref Reinecke et al. (2023), cited from earlier work.
In data set [2] the test system is MAP4K3. Also noted: method as in Reinecke et al. (2023). The following applies: MAP4K3, 5 cell line mix lysate, Kinobeads ε, ref Reinecke et al. (2023), cited from earlier work.
In data set [3] the test system is PRKAA2. Also noted: method as in Reinecke et al. (2023). The following applies: PRKAA2, 5 cell line mix lysate, Kinobeads ε, ref Reinecke et al. (2023), cited from earlier work.
The target of data set [4] is INSR. Also noted: method as in Reinecke et al. (2023). The following applies: 5 cell line mix lysate, Kinobeads ε, ref Reinecke et al. (2023), cited from earlier work.
In data set [5] the test system is PKN3. Also noted: method as in Reinecke et al. (2023). As to conditions: PKN3, 5 cell line mix lysate, Kinobeads ε, ref Reinecke et al. (2023), cited from earlier work.
The subject of data set [6] is TBK1. As to conditions: TBK1, 5 cell line mix lysate, Kinobeads ε, ref Reinecke et al. (2023), cited from earlier work.
The target in data set [7] is PTK2B. Also noted: method as in Reinecke et al. (2023). The following applies: 5 cell line mix lysate, Kinobeads ε, ref Reinecke et al. (2023), cited from earlier work.
For data set [8], the target named is INCENP. Also noted: method as in Reinecke et al. (2023). The following applies: 5 cell line mix lysate, Kinobeads ε, ref Reinecke et al. (2023), cited from earlier work.
Data set [9] concerns RPS6KA1. Also noted: method as in Reinecke et al. (2023). As to conditions: RPS6KA1, 5 cell line mix lysate, Kinobeads ε, ref Reinecke et al. (2023), cited from earlier work.
Data set [10] relates to CLK4. Also noted: method as in Reinecke et al. (2023). As to conditions: CLK4, 5 cell line mix lysate, Kinobeads ε, ref Reinecke et al. (2023), cited from earlier work.
Data set [11] deals with CSNK2A2. As to conditions: CSNK2A2, 5 cell line mix lysate, Kinobeads ε, ref Reinecke et al. (2023), cited from earlier work.
Data set [12] concerns the target EIF3J. As to conditions: 5 cell line mix lysate, Kinobeads ε, ref Reinecke et al. (2023), cited from earlier work.
For data set [13], the system named is CLK2. Also noted: method as in Reinecke et al. (2023). As to conditions: CLK2, 5 cell line mix lysate, Kinobeads ε, ref Reinecke et al. (2023), cited from earlier work.
Data set [14] concerns TANK. Also noted: method as in Klaeger et al. (2017). As to conditions: lysate 4 cell line mix (Colo205, K-562, MV-4-11, and SK-N-BE(2)), Kinobeads y, ref Klaeger et al. (2017); cited from earlier work.
Data set [15] has as its system TBKBP1. Also noted: method as in Klaeger et al. (2017). As to conditions: lysate 4 cell line mix (Colo205, K-562, MV-4-11, and SK-N-BE(2)), Kinobeads y, ref Klaeger et al. (2017); cited from earlier work.
The subject of data set [16] is CAMKK2. Also noted: method as in Klaeger et al. (2017). The following applies: lysate 4 cell line mix (Colo205, K-562, MV-4-11, and SK-N-BE(2)), Kinobeads y, ref Klaeger et al. (2017); cited from earlier work.
The test system of data set [17] is MAPK9. Also noted: method as in Klaeger et al. (2017). As to conditions: lysate 4 cell line mix (Colo205, K-562, MV-4-11, and SK-N-BE(2)), Kinobeads y, ref Klaeger et al. (2017); cited from earlier work.
For data set [18], the system named is TGFBR1. Also noted: method as in Klaeger et al. (2017). The following applies: lysate 4 cell line mix (Colo205, K-562, MV-4-11, and SK-N-BE(2)), Kinobeads y, ref Klaeger et al. (2017); cited from earlier work.
For data set [19], the system named is MAP2K5. Also noted: method as in Klaeger et al. (2017). The following applies: lysate 4 cell line mix (Colo205, K-562, MV-4-11, and SK-N-BE(2)), Kinobeads y, ref Klaeger et al. (2017); cited from earlier work.
Data set [20] deals with PRKAA1. Also noted: method as in Klaeger et al. (2017). As to conditions: lysate 4 cell line mix (Colo205, K-562, MV-4-11, and SK-N-BE(2)), Kinobeads y, ref Klaeger et al. (2017); cited from earlier work.

Regarding `COc1cc(N2CCC(N3CCN(C)CC3)CC2)ccc1Nc1ncc(Cl)c(Nc2ccccc2P(C)(C)=O)n1` [Brigatinib], the 50% effective concentration (EC50) is 45.9 nM in data set [1]; 1160 nM in [2]; 1160 nM in data set [3]; 1750 nM in data set [4]; 38500 nM in data set [5]; 1020 nM in data set [6]. The 50% effective concentration (EC50) in data set [7] is 12.4 nM; in data set [8], 1160 nM; in [9], 376 nM; in data set [10] it was 49.2 nM; in data set [11], 720 nM; in [12] it was 434 nM. Further, the concentration giving a half-maximal response (EC50) in data set [13] is 686 nM. In addition, the pKDapp in data set [1] is given as 7.50; in data set [2], 6.12; in [3], 6.28; in [4] it was 5.88; in [5], 4.41; in data set [6], 6.18. For the same molecule, the pKDapp in data set [7] is listed as 8.29; in data set [8], 5.99; in [9], 6.55; in [10] it was 7.38; in data set [11], 6.16; in data set [12], 6.36. Also, the pKDapp in [13] was 6.35. Further, the Kd in data set [1] (read-out: KDapp) is 31.4 nM; in data set [2] (read-out: KDapp), 759 nM; in [3] (read-out: KDapp), 527 nM; in [4] (read-out: KDapp) it was 1320 nM; in data set [5] (read-out: KDapp), 38500 nM; in data set [6] (read-out: KDapp), 655 nM. The Kd in data set [7] (read-out: KDapp) was 5.14 nM; in data set [8] (read-out: KDapp), 1030 nM; in data set [9] (read-out: KDapp), 283 nM; in [10] (read-out: KDapp), 41.6 nM; in data set [11] (read-out: KDapp), 693 nM; in [12] (read-out: KDapp) it was 434 nM. Besides, the Kd in [13] (read-out: KDapp) is 444 nM.

`C[C@]12O[C@H](C[C@]1(O)CO)n1c3ccccc3c3c4c(c5c6ccccc6n2c5c31)CNC4=O` [Lestaurtinib]: the half-maximal effective concentration (EC50) in data set [14] was 1340 nM; in data set [15] it was 1010 nM; in [16] it was […]; in [17], 2470 nM; in data set [18], […]; in [19], 2050 nM. In data set [20], the half-maximal effective concentration (EC50) was 1320 nM.

A word on the EC50: it is the midpoint of the concentration-response curve.
